Test results: US11090364B2, “Conjugates of a pharmaceutical agent and a moiety capable of binding to a glucose sensing protein” (SANOFI, priority 2016, dated 2021)

The molecules below were run on HepG2 cells (assay: HepG2 assay: 14C 2-deoxy-D-glucose transport into HepG2 cells). Conditions: Homo sapiens, test compound 100 μM.
Format: cell-based
Procedure: For measurement of ^14C 2-deoxy-D-glucose transport into HepG2 cells, cells were seeded in collagen treated 96-well plates (Cytostar-T Plates Perkin Elmer, 40.000 cells/200 μ/well) in medium complete (MEM W/GLUT-I, EARLES (Gibco #41090) /NEAA/PS/10% FCS) and grown for 48 hours. After starvation for 2 hours with MEM W/GLUT-I, EARLES (Gibco #41090)/NEAA/no serum 100 μl/well and washing twice with 200 μL KRB buffer, cells were stimulated in a dose dependent manner by adding 20 μL of test compound dilution 0-750 μM (7.5 times higher concentration than final) or 20 μL of 188 μM Cytochalasin B solution as negative control, to 80 μL KRB buffer and incubated for 30 minutes. After compound stimulation, the transport of ^14C 2-deoxy-D-glucose was started by adding of 50 μL ^14C 2-deoxy-D-glucose solution (250 μM 2-deoxy-D-glucose cold and 15 μM ^14C 2-deoxy-D-glucose 0.13 μCi/well) for 20 minutes. Transport was stopped by adding 50 μL/well 40 μM Cytochalasin B solution. Plates were measured in a 96-well Wallac Microbeta device. The cpm (counts per minute) values were used to determine the % inhibition values for the test compounds within each experiment, which then are averaged over the number of experiments performed.

SMILES	inhibition at 100 µM
CC(=O)O[C@@H]1O[C@H](C(=O)N2CCN(C)CC2)[C@@H](OC(C)=O)[C@H](OC(C)=O)[C@H]1OC(C)=O [Example 1, [(2S,3R,4S,5S,6S)-2,3,5-Triacetoxy-6-(4-methylpiperazine-1-carbonyl)tetrahydropyran-4-yl] acetate]	6.32%
CCN1CCN(C(=O)[C@H]2O[C@@H](OC(C)=O)[C@H](OC(C)=O)[C@@H](OC(C)=O)[C@@H]2OC(C)=O)CC1 [Example 2, [(2S,3R,4S,5S,6S)-2,3,5-Triacetoxy-6-(4-ethylpiperazine-1-carbonyl)tetrahydropyran-4-yl] acetate]	6.5%
CC(=O)O[C@@H]1O[C@H](C(=O)N2CCN(C(C)C)CC2)[C@@H](OC(C)=O)[C@H](OC(C)=O)[C@H]1OC(C)=O [Example 6, [(2S,3R,4S,5S,6S)-2,3,5-Triacetoxy-6-(4-isopropylpiperazine-1-carbonyl)tetrahydropyran-4-yl] acetate]	7.75%
CC(=O)O[C@@H]1O[C@H](C(=O)N2CCN(C(C)(C)C)CC2)[C@@H](OC(C)=O)[C@H](OC(C)=O)[C@H]1OC(C)=O [Example 7, [(2S,3R,4S,5S,6S)-2,3,5-Triacetoxy-6-(4-tert-butylpiperazine-1-carbonyl)tetrahydropyran-4-yl] acetate]	6.99%
C=CCN1CCN(C(=O)[C@H]2O[C@@H](OC(C)=O)[C@H](OC(C)=O)[C@@H](OC(C)=O)[C@@H]2OC(C)=O)CC1 [Example 8, [(2S,3R,4S,5S,6S)-2,3,5-Triacetoxy-6-(4-allylpiperazine-1-carbonyl)tetrahydropyran-4-yl] acetate]	7.67%
CC(=O)O[C@@H]1O[C@H](C(=O)N2CCN(C3CCCCC3)CC2)[C@@H](OC(C)=O)[C@H](OC(C)=O)[C@H]1OC(C)=O [Example 9, [(2S,3R,4S,5S,6S)-2,3,5-Triacetoxy-6-(4-cyclohexylpiperazine-1-carbonyl)tetrahydropyran-4-yl] acetate]	5.11%
CC(=O)O[C@@H]1O[C@H](C(=O)N2CCN(c3ccccc3)CC2)[C@@H](OC(C)=O)[C@H](OC(C)=O)[C@H]1OC(C)=O [Example 12, [(2S,3R,4S,5S,6S)-2,3,5-Triacetoxy-6-(4-phenylpiperazine-1-carbonyl)tetrahydropyran-4-yl] acetate]	5.43%
CC(=O)O[C@@H]1O[C@H](C(=O)N2CCN(c3ccc(Cl)cc3)CC2)[C@@H](OC(C)=O)[C@H](OC(C)=O)[C@H]1OC(C)=O [Example 14, [(2S,3R,4S,5S,6S)-2,3,5-Triacetoxy-6-[4-(4-chlorophenyl)piperazine-1-carbonyl]tetrahydropyran-4-yl] acetate]	5.67%
COc1ccccc1N1CCN(C(=O)[C@H]2O[C@@H](OC(C)=O)[C@H](OC(C)=O)[C@@H](OC(C)=O)[C@@H]2OC(C)=O)CC1 [Example 19, [(2S,3R,4S,5S,6S)-2,3,5-Triacetoxy-6-[4-(2-methoxyphenyl)piperazine-1-carbonyl]tetrahydropyran-4-yl] acetate]	6.89%
CN1CCN(C(=O)[C@H]2OC(O)[C@H](O)[C@@H](O)[C@@H]2O)CC1 (stereo partly drawn) [Example 21, (4-Methylpiperazin-1-yl)-[(2S,3S,4S,5R)-3,4,5,6-tetrahydroxytetrahydropyran-2-yl]methanone]	7.53%
CCN1CCN(C(=O)[C@H]2OC(O)[C@H](O)[C@@H](O)[C@@H]2O)CC1 (stereo partly drawn) [Example 22, (4-Ethylpiperazin-1-yl)-[(2S,3S,4S,5R)-3,4,5,6-tetrahydroxytetrahydropyran-2-yl]methanone]	11.4%
CC(C)(C)N1CCN(C(=O)[C@H]2OC(O)[C@H](O)[C@@H](O)[C@@H]2O)CC1 (stereo partly drawn) [Example 27, (4-tert-Butylpiperazin-1-yl)-[(2S,3S,4S,5R)-3,4,5,6-tetrahydroxytetrahydropyran-2-yl]methanone]	13.1%
C=CCN1CCN(C(=O)[C@H]2OC(O)[C@H](O)[C@@H](O)[C@@H]2O)CC1 (stereo partly drawn) [Example 28, (4-Allylpiperazin-1-yl)-[(2S,3S,4S,5R)-3,4,5,6-tetrahydroxytetrahydropyran-2-yl]methanone]	9.95%
